These results are taken from PMC4774911, “Biochemical Screening of Five Protein Kinases from Plasmodium falciparum against 14,000 Cell-Active Compounds” (PLoS ONE, 2016).

Common to all, as to test: biochemical
Assay [1] deals with T1, STK11 (Homo sapiens, UniProt Q15831).
T1 sequence (Q15831 1-433): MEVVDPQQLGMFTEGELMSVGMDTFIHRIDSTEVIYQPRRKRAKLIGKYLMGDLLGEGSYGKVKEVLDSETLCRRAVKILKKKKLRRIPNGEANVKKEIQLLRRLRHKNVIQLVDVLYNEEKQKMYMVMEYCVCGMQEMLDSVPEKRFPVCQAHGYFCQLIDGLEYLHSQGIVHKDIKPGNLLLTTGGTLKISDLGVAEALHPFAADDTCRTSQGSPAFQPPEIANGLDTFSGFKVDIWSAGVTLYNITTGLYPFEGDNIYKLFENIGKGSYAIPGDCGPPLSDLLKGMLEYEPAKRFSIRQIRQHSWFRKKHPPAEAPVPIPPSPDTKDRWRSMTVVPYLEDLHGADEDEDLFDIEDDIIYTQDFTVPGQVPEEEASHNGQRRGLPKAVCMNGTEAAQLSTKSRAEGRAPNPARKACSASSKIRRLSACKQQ

For assay [2], the target named is STK10 (Homo sapiens, UniProt O94804).
Assay [3] has as its target LIMK1 (Homo sapiens, UniProt P53667).
The target of assay [4] is T2, MYLK3 (Homo sapiens, UniProt Q32MK0).
T2 sequence (Q32MK0 1-819): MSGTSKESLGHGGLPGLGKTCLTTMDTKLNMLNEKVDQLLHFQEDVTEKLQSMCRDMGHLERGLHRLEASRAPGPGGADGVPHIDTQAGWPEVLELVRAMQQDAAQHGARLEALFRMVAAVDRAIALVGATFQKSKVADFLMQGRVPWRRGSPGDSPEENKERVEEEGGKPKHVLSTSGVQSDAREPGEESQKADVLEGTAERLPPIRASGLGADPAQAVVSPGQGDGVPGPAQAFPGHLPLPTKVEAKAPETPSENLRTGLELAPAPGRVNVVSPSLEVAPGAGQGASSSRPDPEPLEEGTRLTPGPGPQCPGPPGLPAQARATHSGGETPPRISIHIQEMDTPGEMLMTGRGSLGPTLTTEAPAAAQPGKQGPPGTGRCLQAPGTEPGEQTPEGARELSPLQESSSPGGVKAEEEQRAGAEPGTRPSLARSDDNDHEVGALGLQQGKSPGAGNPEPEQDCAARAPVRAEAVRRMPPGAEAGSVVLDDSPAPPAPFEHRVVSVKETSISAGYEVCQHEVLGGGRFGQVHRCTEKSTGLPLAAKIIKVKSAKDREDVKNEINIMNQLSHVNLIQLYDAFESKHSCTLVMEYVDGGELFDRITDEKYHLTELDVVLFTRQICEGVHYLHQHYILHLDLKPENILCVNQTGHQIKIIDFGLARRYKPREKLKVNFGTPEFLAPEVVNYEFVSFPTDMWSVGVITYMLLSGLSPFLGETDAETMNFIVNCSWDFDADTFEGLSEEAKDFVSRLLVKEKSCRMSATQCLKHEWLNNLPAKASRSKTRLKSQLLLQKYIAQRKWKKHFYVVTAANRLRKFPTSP

Assay [5] addresses EIF2AK4 (Homo sapiens, UniProt Q9P2K8).
Assay [6] addresses CSNK1A1 (Homo sapiens, UniProt P48729).
For assay [7], the target named is T3, TEC (Homo sapiens, UniProt P42680).
T3 sequence (P42680 1-631): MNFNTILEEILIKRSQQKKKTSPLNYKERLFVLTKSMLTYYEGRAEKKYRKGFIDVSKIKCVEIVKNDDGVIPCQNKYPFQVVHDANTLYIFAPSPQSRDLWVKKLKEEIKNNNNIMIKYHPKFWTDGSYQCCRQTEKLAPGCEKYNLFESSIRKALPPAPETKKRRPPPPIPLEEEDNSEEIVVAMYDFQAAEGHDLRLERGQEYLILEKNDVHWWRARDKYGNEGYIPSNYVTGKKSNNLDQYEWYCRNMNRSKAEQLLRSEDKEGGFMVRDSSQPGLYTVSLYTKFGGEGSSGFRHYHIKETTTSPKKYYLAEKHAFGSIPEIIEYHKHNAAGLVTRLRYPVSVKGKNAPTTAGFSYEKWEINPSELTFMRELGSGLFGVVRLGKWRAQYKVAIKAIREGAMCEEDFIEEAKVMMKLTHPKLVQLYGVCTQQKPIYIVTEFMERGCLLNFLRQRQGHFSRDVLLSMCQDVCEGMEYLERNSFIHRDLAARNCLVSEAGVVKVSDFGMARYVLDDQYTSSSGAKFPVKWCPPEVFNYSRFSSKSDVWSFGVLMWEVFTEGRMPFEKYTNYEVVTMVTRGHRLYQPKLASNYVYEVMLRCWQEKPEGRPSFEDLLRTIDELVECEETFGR

Assay [8] concerns the target T4, TNK1 (Homo sapiens, UniProt Q13470).
T4 sequence (Q13470 1-666): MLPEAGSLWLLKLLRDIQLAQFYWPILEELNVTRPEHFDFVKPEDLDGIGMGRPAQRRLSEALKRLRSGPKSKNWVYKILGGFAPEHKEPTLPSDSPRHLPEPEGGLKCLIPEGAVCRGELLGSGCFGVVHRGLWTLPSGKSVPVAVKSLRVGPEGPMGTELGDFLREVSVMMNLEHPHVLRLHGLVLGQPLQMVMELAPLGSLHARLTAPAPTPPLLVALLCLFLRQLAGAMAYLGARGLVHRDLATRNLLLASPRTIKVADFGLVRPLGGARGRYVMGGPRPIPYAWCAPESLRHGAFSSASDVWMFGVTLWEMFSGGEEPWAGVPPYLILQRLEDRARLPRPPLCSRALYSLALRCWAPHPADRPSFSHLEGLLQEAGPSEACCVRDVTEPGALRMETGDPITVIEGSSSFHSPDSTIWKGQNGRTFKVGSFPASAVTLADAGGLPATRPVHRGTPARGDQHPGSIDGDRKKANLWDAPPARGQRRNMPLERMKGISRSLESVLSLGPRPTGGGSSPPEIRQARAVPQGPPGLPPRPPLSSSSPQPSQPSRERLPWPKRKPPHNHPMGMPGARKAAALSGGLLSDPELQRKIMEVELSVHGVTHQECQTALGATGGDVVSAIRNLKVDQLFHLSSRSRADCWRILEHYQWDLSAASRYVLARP

Assay [9] addresses LYN (Homo sapiens, UniProt P07948).
For assay [10], the target named is CDK7 (Homo sapiens, UniProt P50613).

“And” between values parts separate entries of the source, which are not always exact repeats. Equal values may be shown once.

Sequence of CSNK1A1 (P48729 whole entry): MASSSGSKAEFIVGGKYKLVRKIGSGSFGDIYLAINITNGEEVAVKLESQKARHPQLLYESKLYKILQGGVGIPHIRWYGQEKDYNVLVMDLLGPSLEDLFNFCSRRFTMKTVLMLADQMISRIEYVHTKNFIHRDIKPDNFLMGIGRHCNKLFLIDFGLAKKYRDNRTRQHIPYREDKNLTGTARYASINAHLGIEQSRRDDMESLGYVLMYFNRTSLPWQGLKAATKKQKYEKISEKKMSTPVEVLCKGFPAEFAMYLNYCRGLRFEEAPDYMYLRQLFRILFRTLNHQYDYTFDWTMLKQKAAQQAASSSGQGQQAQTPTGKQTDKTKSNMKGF
Sequence of LIMK1 (P53667 whole entry): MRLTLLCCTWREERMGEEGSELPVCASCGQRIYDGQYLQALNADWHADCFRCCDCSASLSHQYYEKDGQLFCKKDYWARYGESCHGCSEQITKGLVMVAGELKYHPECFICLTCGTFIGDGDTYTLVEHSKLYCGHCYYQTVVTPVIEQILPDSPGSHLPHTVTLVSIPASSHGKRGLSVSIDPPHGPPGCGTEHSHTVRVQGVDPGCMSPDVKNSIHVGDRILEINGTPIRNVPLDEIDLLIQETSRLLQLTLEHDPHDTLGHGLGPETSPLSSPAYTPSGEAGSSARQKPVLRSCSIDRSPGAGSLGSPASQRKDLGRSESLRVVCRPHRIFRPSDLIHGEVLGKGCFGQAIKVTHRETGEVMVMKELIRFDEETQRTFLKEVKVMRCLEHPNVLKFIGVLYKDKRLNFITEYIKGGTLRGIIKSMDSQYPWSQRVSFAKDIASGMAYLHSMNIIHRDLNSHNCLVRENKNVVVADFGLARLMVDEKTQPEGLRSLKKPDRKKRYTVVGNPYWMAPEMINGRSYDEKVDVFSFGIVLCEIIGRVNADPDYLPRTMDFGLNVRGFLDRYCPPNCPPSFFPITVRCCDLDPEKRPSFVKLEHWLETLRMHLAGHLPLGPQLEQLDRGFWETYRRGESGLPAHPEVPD
Sequence of CDK7 (P50613 whole entry): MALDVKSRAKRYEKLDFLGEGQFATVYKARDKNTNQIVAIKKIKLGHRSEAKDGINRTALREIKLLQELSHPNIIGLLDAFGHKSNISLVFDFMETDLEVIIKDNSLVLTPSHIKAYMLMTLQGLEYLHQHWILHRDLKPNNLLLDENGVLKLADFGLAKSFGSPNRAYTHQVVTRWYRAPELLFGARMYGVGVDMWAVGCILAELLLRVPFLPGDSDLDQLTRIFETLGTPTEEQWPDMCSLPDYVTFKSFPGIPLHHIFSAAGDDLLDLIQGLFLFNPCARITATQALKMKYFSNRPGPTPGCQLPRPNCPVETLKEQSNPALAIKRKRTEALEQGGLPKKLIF
Sequence of EIF2AK4 (Q9P2K8 whole entry): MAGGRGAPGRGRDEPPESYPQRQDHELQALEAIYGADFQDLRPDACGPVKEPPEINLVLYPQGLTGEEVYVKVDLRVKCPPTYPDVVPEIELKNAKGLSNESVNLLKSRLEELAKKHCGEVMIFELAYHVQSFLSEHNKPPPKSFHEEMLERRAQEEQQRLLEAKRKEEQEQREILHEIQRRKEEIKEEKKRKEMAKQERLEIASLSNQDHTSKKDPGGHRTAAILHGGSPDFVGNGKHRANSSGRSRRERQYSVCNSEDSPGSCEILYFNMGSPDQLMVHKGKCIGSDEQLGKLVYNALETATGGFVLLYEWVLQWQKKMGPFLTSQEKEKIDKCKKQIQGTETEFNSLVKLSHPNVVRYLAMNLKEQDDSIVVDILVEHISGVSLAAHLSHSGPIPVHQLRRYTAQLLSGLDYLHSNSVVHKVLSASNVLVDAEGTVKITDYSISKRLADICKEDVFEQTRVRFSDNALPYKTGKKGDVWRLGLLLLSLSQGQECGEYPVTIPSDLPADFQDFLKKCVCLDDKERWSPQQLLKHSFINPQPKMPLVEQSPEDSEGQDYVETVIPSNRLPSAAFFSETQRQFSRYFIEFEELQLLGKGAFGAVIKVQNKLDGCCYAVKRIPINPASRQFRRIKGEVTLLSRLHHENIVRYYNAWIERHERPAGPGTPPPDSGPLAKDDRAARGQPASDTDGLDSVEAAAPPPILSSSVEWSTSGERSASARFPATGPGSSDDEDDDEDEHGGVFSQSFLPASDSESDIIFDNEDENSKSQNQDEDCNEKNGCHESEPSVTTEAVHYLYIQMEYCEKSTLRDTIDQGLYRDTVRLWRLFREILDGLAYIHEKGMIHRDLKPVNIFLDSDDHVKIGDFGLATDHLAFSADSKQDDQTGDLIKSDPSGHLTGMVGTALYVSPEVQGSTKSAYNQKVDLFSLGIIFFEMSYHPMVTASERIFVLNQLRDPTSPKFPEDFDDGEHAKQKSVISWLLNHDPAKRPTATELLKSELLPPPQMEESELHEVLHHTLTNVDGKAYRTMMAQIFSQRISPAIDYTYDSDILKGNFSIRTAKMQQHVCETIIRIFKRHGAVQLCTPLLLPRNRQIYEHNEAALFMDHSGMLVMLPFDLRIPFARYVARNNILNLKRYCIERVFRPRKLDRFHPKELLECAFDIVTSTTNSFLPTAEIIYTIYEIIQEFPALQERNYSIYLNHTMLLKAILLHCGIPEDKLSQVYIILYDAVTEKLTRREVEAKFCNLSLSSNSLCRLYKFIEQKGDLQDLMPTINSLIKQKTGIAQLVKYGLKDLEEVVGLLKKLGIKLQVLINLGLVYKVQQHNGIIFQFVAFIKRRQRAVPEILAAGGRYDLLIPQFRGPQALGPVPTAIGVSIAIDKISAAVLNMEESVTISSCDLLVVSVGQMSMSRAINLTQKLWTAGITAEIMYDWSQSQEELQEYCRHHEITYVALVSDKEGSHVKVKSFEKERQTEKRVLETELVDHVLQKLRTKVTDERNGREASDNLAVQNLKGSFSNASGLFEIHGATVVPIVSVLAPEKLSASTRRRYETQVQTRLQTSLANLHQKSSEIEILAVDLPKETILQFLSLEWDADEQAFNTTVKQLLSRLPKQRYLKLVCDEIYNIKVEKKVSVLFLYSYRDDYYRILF
Sequence of LYN (P07948 whole entry): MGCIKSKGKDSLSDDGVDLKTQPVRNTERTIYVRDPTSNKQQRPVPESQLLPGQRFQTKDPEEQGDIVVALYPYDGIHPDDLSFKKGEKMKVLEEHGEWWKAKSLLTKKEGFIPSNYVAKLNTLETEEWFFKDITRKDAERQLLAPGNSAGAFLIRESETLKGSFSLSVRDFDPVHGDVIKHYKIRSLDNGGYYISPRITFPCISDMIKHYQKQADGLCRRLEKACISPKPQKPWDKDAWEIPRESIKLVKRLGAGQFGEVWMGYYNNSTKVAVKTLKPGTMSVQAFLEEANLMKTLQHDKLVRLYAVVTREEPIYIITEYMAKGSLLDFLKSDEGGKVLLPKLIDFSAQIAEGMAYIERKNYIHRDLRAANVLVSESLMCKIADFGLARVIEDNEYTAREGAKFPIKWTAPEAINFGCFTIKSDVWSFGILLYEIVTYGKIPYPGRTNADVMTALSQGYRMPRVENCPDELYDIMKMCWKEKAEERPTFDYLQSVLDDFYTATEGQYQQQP
Sequence of STK10 (O94804 whole entry): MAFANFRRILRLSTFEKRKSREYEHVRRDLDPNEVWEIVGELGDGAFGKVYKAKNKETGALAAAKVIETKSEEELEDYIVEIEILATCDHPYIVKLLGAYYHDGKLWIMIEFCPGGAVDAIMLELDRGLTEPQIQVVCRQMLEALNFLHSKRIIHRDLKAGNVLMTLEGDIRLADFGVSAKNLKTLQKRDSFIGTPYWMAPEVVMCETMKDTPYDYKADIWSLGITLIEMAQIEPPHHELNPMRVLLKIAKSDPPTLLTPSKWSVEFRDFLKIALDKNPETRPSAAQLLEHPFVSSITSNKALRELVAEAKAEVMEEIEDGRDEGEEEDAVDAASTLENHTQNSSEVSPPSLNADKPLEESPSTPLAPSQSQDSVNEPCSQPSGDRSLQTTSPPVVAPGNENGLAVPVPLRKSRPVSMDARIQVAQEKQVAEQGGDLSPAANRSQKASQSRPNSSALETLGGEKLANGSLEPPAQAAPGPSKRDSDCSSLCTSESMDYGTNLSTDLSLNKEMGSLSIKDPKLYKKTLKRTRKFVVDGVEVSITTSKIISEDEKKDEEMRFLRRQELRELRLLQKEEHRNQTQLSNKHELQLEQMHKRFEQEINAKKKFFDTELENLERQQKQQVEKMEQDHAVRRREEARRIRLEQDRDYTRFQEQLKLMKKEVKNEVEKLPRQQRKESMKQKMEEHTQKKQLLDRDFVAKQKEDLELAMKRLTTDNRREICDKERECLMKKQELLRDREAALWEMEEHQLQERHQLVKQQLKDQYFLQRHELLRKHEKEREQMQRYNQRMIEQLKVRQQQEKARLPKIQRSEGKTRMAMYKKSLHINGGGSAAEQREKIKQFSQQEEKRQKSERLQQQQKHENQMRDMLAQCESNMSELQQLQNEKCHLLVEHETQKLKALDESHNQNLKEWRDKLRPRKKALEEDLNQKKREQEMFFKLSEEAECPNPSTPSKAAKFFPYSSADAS

With `CN1CCN(c2ccc(Nc3ncc(C#N)c(Nc4ccccc4C(N)=O)n3)cc2)CC1.Cl` [TCMDC-134116], the IC50 (in general, the concentration that gives 50% inhibition) was 1000 nM in [1]; 48 nM and 93 nM in assay [2]; 220 nM in [3]; 67 nM and 93 nM in assay [4]; 240 nM and 210 nM in assay [5]; 960 nM and 1400 nM in [6]. For the same compound, the IC50 in assay [7] is 460 nM and 490 nM; in [8], at most 32 nM; in assay [9] it was 280 nM and 350 nM; in assay [10] it was 530 nM and 620 nM.
`Cl.NCC1(c2nc(-c3ccc(Cl)c(O)c3)c(-c3ccncc3)[nH]2)CCCCC1` [TCMDC-141154]: the concentration for half-maximal inhibition (IC50) in [1] was 1400 nM; in [2] it was 57 nM; in [3] it was above 20000 nM; in assay [4] it was above 20000 nM; in assay [5] it was above 20000 nM; in [6], 290 nM and 330 nM. In addition, the half-inhibitory concentration (IC50) in assay [7] is above 20000 nM; in [8] it was above 20000 nM; in [9] it was 1300 nM; in [10], above 20000 nM.
Regarding `CN(C)CC(O)COc1ccc(Nc2ncc([N+](=O)[O-])c(Nc3ccccc3O)n2)cc1.O=C(O)C(F)(F)F` (stereo not drawn) [TCMDC-141399], the IC50 in assay [1] is 4400 nM; in assay [2] it was 6300 nM; in assay [3], above 20000 nM; in assay [4] it was 2100 nM and 1800 nM; in assay [5], 260 nM and 350 nM; in assay [6], 9900 nM. Further, the 50% inhibitory concentration (IC50) was above 20000 nM in [7]; 4200 nM and 1700 nM in assay [8]; above 20000 nM in assay [9]; 1800 nM and 5800 nM in assay [10].
